In ChEMBL document CHEMBL2176875, “Ago-allosteric modulators of human glucagon-like peptide 2 receptor” (Bioorg Med Chem Lett, 2012):
pEC50: −log10 of the molar value. Each block holds one compound with its values, some of them ahead of it. Calls of active or inactive are those of the source. No cut-off for these calls is given here.

Legend:
[1] = biological target: T1, Glucagon-like peptide 2 receptor (Homo sapiens) (UniProt O95838); test: Positive ago-allosteric modulation of GLP2R overexpressed in human SE302 cells assessed as placental alkaline phosphatase activation at 25 uM measured on day 3 by Alamar Blue assay relative to 100 pM GLP2; assay type: cell-based
T1 sequence (whole entry): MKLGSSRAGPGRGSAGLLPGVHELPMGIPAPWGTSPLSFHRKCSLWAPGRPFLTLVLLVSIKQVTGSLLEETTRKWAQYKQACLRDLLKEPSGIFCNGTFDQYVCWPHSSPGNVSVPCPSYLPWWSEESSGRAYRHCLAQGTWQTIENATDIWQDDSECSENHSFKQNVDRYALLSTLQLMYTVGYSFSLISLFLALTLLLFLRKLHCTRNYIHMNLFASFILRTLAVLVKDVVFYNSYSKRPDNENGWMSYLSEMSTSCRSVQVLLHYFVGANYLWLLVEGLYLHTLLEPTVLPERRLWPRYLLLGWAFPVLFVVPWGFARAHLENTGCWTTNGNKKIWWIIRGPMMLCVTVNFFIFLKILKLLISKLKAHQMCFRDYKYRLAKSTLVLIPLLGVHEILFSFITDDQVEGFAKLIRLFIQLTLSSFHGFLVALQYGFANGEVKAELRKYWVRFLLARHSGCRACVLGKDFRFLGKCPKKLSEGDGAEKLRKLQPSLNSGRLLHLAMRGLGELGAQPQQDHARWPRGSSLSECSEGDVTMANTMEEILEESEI

[2] = biological target: T1, Glucagon-like peptide 2 receptor (Homo sapiens); test: Positive ago-allosteric modulation of GLP2R overexpressed in human SE302 cells assessed as placental alkaline phosphatase activation at 25 uM measured on day 3 by Alamar Blue assay relative to 10 pM GLP2; assay type: cell-based
[3] = biological target: T1, Glucagon-like peptide 2 receptor (Homo sapiens); test: Positive ago-allosteric modulation of GLP2R overexpressed in human SE302 cells assessed as placental alkaline phosphatase activation at 50 uM measured on day 3 by Alamar Blue assay relative to 100 pM GLP2; assay type: cell-based
[4] = biological target: T1, Glucagon-like peptide 2 receptor (Homo sapiens); test: (§1) Positive ago-allosteric modulation of GLP2R overexpressed in human SE302 cells assessed as placental alkaline phosphatase activation measured on day 3 by Alamar Blue assay; assay type: cell-based
[5] = biological target: T1, Glucagon-like peptide 2 receptor (Homo sapiens); test: Positive ago-allosteric modulation of GLP2R overexpressed in human SE302 cells assessed as placental alkaline phosphatase activation at 12.5 uM measured on day 3 by Alamar Blue assay relative to 100 pM GLP2; assay type: cell-based
[6] = biological target: T1, Glucagon-like peptide 2 receptor (Homo sapiens); test: Displacement of [125I]-Bolton Hunter labeled GLP2 from GLP2R overexpressed in human SE302 cell membranes at 1 uM after 2 hrs by gamma counter
[7] = biological target: T2, Glucagon-like peptide 2 receptor (Homo sapiens, UniProt O95838); test: as §1; assay type: cell-based
T2 sequence (O95838 whole entry): T1 sequence (whole entry)

[8] = biological target: T1, Glucagon-like peptide 2 receptor (Homo sapiens); test: Positive ago-allosteric modulation of GLP2R overexpressed in human SE302 cells assessed as placental alkaline phosphatase activation measured on day 3 by Alamar Blue assay relative to GLP2; assay type: cell-based
[9] = biological target: T1, Glucagon-like peptide 2 receptor (Homo sapiens); test: Displacement of [125I]-Bolton Hunter labeled GLP2 from GLP2R overexpressed in human SE302 cell membranes at 10 uM after 2 hrs by gamma counter
[10] = biological target: T1, Glucagon-like peptide 2 receptor (Homo sapiens); test: Positive ago-allosteric modulation of GLP2R overexpressed in human SE302 cells assessed as increase in (Z)-methyl 2-(2-(2,5-dichlorothiophen-3-yl)-2-(hydroxyimino)ethylthio)benzoate-induced placental alkaline phosphatase activation measured on day 3 by Alamar Blue assay; assay type: cell-based
[11] = biological target: T1, Glucagon-like peptide 2 receptor (Homo sapiens); test: Positive ago-allosteric modulation of GLP2R overexpressed in human SE302 cells assessed as reduction of GLP2-induced cAMP level at 3 to 10 uM after 30 mins; assay type: functional, cell-based
[12] = biological target: T1, Glucagon-like peptide 2 receptor (Homo sapiens); test: Positive ago-allosteric modulation of GLP2R overexpressed in human SE302 cells assessed as placental alkaline phosphatase activation at 50 uM measured on day 3 by Alamar Blue assay relative to 10 pM GLP2; assay type: cell-based
[13] = biological target: T1, Glucagon-like peptide 2 receptor (Homo sapiens); test: Displacement of [125I]-Bolton Hunter labeled GLP2 from GLP-2R overexpressed in human SE302 cell membranes up to 100 uM after 2 hrs by gamma counter
[14] = biological target: T1, Glucagon-like peptide 2 receptor (Homo sapiens); test: Positive ago-allosteric modulation of GLP2R overexpressed in human SE302 cells assessed as placental alkaline phosphatase activation at 6.3 uM measured on day 3 by Alamar Blue assay relative to 100 pM GLP2; assay type: cell-based
[15] = biological target: T1, Glucagon-like peptide 2 receptor (Homo sapiens); test: Positive ago-allosteric modulation of GLP2R overexpressed in human SE302 cells assessed as placental alkaline phosphatase activation at 6.3 uM measured on day 3 by Alamar Blue assay relative to 10 pM GLP2; assay type: cell-based
[16] = biological target: T1, Glucagon-like peptide 2 receptor (Homo sapiens); test: Positive ago-allosteric modulation of GLP2R overexpressed in human SE302 cells assessed as GLP2 (3 to 33)-induced placental alkaline phosphatase activation at 10 uM measured on day 3 by Alamar Blue assay relative to GLP2; assay type: cell-based
[17] = biological target: T1, Glucagon-like peptide 2 receptor (Homo sapiens); test: Positive ago-allosteric modulation of GLP2R overexpressed in human SE302 cells assessed as increase in GLP2 (11 to 33)-induced placental alkaline phosphatase activation at 10 uM measured on day 3 by Alamar Blue assay relative to GLP2; assay type: cell-based

Compound: O/N=C(\CSc1ccccc1)c1cccc(Br)c1
%max [2]: 42%

Compound: CCc1cnccc1SC/C(=N\O)c1cc(Cl)sc1Cl
%max [1]: 59%

Compound: Cc1cnccc1SC/C(=N\O)c1cc(Cl)sc1Cl
%max [3]: 44%

Compound: Cn1nc(C2CC2)cc1/C(CSc1ccccc1)=N/O
Activity [4]: inactive

Compound: O/N=C(\CSc1cccc(Cl)c1)c1cc(Cl)sc1Cl
%max [1]: 53%

Compound: COc1c(C(=O)O)cc(/C(CSc2ccccc2)=N/O)cc1C(C)(C)C
Activity [4]: inactive

Compound: O/N=C(\CSc1ccccc1C(F)(F)F)c1cc(Cl)sc1Cl
%max [5]: 58%

Compound: Cc1ccccc1SC/C(=N\O)c1cc(Cl)sc1Cl
%max [1]: 90%

Compound: Cc1cc(F)ccc1SC/C(=N\O)c1cc(Cl)sc1Cl
%max [1]: 124%

Compound: COc1ccccc1SC/C(=N\O)c1cc(Cl)sc1Cl
%max [12]: 78%
Activity [4]: inactive

Compound: COc1c(C(=O)OC(C)(C)C)cc(/C(CSc2ccccc2)=N/O)cc1C(C)(C)C
%max [5]: 12%

Compound: O/N=C(\CSc1ccccc1)c1cccc(C(F)(F)F)c1
%max [2]: 95%

Compound: O/N=C(\CSc1ccc(C(F)(F)F)cc1)c1cc(Cl)sc1Cl
%max [1]: 16%

Compound: COC(=O)c1ccccc1SC/C(=N\O)c1cc(Cl)sc1Cl
%max [2]: 284%
%max [1]: 39%

Compound: O/N=C(\CSc1cccnc1)c1cc(Cl)sc1Cl
%max [3]: 27%

Compound: O/N=C(\CSc1ccccc1)c1cc(C(F)(F)F)cc(C(F)(F)F)c1
%max [2]: 517%
%max [1]: 29%

Compound: Cc1ccc(SC/C(=N\O)c2cc(Cl)sc2Cl)c(C)c1
%max [5]: 58%

Compound: CCCOc1cccc(/C(CSc2ccccc2)=N/O)c1
%max [1]: 9%

Compound: COc1c(Br)cc(/C(CSc2ccccc2C(F)(F)F)=N/O)cc1C(C)(C)C
%max [14]: 97%
%max [15]: 714%

Compound: O/N=C(\CSc1ccc(Cl)cc1)c1cc(Cl)sc1Cl
%max [2]: 293%
%max [1]: 17%

Compound: COc1c(N(C)C)cc(/C(CSc2ccccc2)=N/O)cc1C(C)(C)C
%max [5]: 43%

Compound: O/N=C(\CSc1cccs1)c1cc(Cl)sc1Cl
%max [1]: 40%

Compound: Cn1nc(C(C)(C)C)cc1/C(CSc1ccccc1)=N/O
Activity [4]: inactive

Compound: Cn1nc(-c2ccccc2)cc1/C(CSc1ccccc1)=N/O
%max [1]: 14%

Compound: O/N=C(\CSc1cccc(F)c1)c1cc(Cl)sc1Cl
%max [1]: 73%

Compound: O/N=C(\CSc1ccccc1)c1cc(C(F)(F)F)nn1Cc1ccccc1
%max [5]: 59%

Compound: Cc1cc(/C(CSc2ccccc2)=N/O)n(C)n1
Activity [4]: inactive

Compound: O/N=C(\CSc1ccc(F)cc1)c1cc(Cl)sc1Cl
%max [2]: 945%
%max [1]: 134%

Compound: O/N=C(\CSc1ccccc1)c1ccccc1
%max [12]: 4%

Compound: O/N=C(\CSc1ccccc1F)c1cc(Cl)sc1Cl
%max [1]: 80%

Compound: Cc1cccc(SC/C(=N\O)c2cc(Cl)sc2Cl)c1
%max [1]: 30%

Compound: CC(C)(C)SC/C(=N\O)c1cc(Cl)sc1Cl
Activity [4]: inactive

Compound: O/N=C(\CSc1ccccc1)c1cccc(Cl)c1
%max [2]: 46%

Compound: CCC(C)n1nc(C(F)(F)F)cc1/C(CSc1ccccc1)=N/O (stereo not drawn)
%max [5]: 110%

Compound: Cc1ccc(SC/C(=N\O)c2cc(Cl)sc2Cl)cc1
%max [12]: 65%
%max [3]: 3%

Compound: O/N=C(\CSCc1ccccc1)c1cc(Cl)sc1Cl
Activity [4]: inactive

Compound: CC(C)n1nc(C(F)(F)F)cc1/C(CSc1ccccc1)=N/O
%max [1]: 87%

Compound: H-DGSFSDEMNTILDNLAARDFINWLIQTKITD-OH [listing 1 of 2 here]
pEC50 [7]: 7.51

Compound: N#Cc1cccc(/C(CSc2ccccc2)=N/O)c1
%max [12]: 8%

Compound: CC(C)Oc1cccc(/C(CSc2ccccc2)=N/O)c1
%max [1]: 14%

Compound: O/N=C(\CSC1CCCCC1)c1cc(Cl)sc1Cl
Activity [4]: inactive

Compound: O/N=C(\CSc1ccccc1C(F)(F)F)c1cc(C(F)(F)F)nn1C1CCCC1
%max [14]: 83%
%max [15]: 610%

Compound: COc1cccc(/C(CSc2ccccc2)=N/O)c1
%max [1]: 8%

Compound: O/N=C(\CSc1ccncc1C(F)(F)F)c1cc(Cl)sc1Cl
%max [1]: 143%

Compound: CCc1ccccc1SC/C(=N\O)c1cc(Cl)sc1Cl
%max [1]: 63%

Compound: O/N=C(\CSc1ccncc1-c1ccccc1)c1cc(Cl)sc1Cl
%max [5]: 102%

Compound: O/N=C(\CSc1ccccc1-c1ccccc1)c1cc(Cl)sc1Cl
%max [5]: 84%

Other lines, results leading:

%max [1]: 10%
Compound: Cc1cccc(C)c1SC/C(=N\O)c1cc(Cl)sc1Cl

%max [1]: 54%
Compound: Cc1cccc(SC/C(=N\O)c2cc(Cl)sc2Cl)c1C

%max [1]: 127%
Compound: O/N=C(\CSc1ccccc1)c1cc(C(F)(F)F)nn1C1CCCC1

%max [1]: 99%
Compound: O/N=C(\CSc1ccccc1)c1cc(C(F)(F)F)nn1C1CCC1

Activity [6]: 88%
pEC50 [7]: 5.89
%max [8]: 11%
Activity [9]: 100%
Activity [10]: Dose-dependent effect
Activity [11]: Dose-dependent effect
Compound: H-NTILDNLAARDFINWLIQTKITD-OH

Activity [13]: inactive
%max [3]: 55%
Compound: O/N=C(\CSc1ccncc1)c1cc(Cl)sc1Cl

Activity [4]: inactive
Compound: O/N=C(\CSc1ccccc1)c1cccc(O)c1

Activity [4]: inactive
Compound: O/N=C(\CSc1ccccn1)c1cc(Cl)sc1Cl

%max [5]: 43%
Compound: COc1c(Br)cc(/C(CSc2ccccc2)=N/O)cc1C(C)(C)C

%max [1]: 23%
Compound: O/N=C(\CSc1cccc2ccccc12)c1cc(Cl)sc1Cl

Activity [16]: Active
%max [1]: 31%
Activity [17]: Active
Compound: CC(C)(C)c1cc(/C(CSc2ccccc2)=N/O)cc(C(C)(C)C)c1

Activity [4]: inactive
Compound: CCSC/C(=N\O)c1cc(Cl)sc1Cl

Activity [4]: inactive
Compound: O=C(O)c1ccccc1SC/C(=N\O)c1cc(Cl)sc1Cl

%max [1]: 4%
Compound: CC(C)(C)OC(=O)c1cc(/C(CSc2ccccc2)=N/O)cc(C(C)(C)C)c1O

%max [1]: 60%
Compound: O/N=C(\CSc1ccccc1Cl)c1cc(Cl)sc1Cl

%max [1]: 31%
Compound: COc1cccc(SC/C(=N\O)c2cc(Cl)sc2Cl)c1C

Activity [4]: inactive
%max [1]: 13%
Compound: Cn1nc(C(F)(F)F)cc1/C(CSc1ccccc1)=N/O

Activity [4]: inactive
Compound: O/N=C(\CSCCCc1ccccc1)c1cc(Cl)sc1Cl

%max [5]: 31%
Compound: CCC(CC)n1nc(C(F)(F)F)cc1/C(CSc1ccccc1)=N/O

%max [2]: 244%
%max [1]: 18%
Compound: CC(C)(C)c1cccc(/C(CSc2ccccc2)=N/O)c1

%max [1]: 71%
Compound: CCCn1nc(C(F)(F)F)cc1/C(CSc1ccccc1)=N/O

%max [2]: 54%
Compound: O/N=C(\CSc1ccccc1)c1cccc(F)c1

%max [5]: 40%
Compound: CC(C)(C)c1ccccc1SC/C(=N\O)c1cc(Cl)sc1Cl

%max [8]: 59%
Compound: H-DGSFSDEMNTILDNLAARDFINWLIQTKITD-OH [listing 2 of 2 here]

%max [5]: 40%
Compound: Cc1ccc(C)c(SC/C(=N\O)c2cc(Cl)sc2Cl)c1

Activity [4]: inactive
%max [2]: 144%
Compound: COc1cccc(SC/C(=N\O)c2cc(Cl)sc2Cl)c1

%max [12]: 217%
Compound: COc1ccc(SC/C(=N\O)c2cc(Cl)sc2Cl)cc1
